Test results from the kinase profiling compilation of Christmann-Franck et al. (2016).

Columns and labels:
Conditions in all cases: compound 10.0 µM
PRKD3 (human) = PRKD3 (human) (UniProt O94806)
CDK19 (human) = CDK19 (human) (UniProt Q9BWU1)
[1] = system: KIT (human), P10721 [V559D/V654A]
MAPK7 (human) = MAPK7 (human) (UniProt Q13164)
[2] = system: RET (human), P07949 [M918T]
PLK4 (human) = PLK4 (human) (UniProt O00444)
PDGFRB (human) = PDGFRB (human) (UniProt P09619)
DMPK (human) = DMPK (human) (UniProt Q09013)
CDK14 (human) = CDK14 (human) (UniProt O94921)
PIP4K2C (human) = PIP4K2C (human) (UniProt Q8TBX8)
TNK2 (human) = TNK2 (human) (UniProt Q07912)
RPS6KB1 (human) = RPS6KB1 (human) (UniProt P23443)
CHEK2 (human) = CHEK2 (human) (UniProt O96017)
Sequence of CHEK2 (human) (O96017 whole entry, looked up): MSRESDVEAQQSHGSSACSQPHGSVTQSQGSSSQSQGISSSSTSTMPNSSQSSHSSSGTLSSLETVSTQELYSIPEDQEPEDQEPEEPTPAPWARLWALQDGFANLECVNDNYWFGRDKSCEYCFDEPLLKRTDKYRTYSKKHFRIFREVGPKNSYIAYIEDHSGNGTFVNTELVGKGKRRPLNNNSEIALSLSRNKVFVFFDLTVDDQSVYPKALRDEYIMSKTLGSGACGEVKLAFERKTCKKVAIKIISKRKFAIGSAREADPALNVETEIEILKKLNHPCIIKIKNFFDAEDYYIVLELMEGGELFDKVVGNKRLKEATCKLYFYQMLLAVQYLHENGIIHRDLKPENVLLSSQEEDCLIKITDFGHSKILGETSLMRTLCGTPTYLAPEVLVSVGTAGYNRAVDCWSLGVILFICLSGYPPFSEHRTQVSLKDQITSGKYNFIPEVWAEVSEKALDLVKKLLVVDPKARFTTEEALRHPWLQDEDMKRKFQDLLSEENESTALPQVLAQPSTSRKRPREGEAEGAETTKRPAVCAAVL

PRKCE (human) = PRKCE (human) (UniProt Q02156)
CAMK1D (human) = CAMK1D (human) (UniProt Q8IU85)
CDKL5 (human) = CDKL5 (human) (UniProt O76039)
HIPK4 (human) = HIPK4 (human) (UniProt Q8NE63)
PRKCD (human) = PRKCD (human) (UniProt Q05655)
Sequence of PRKCD (human) (Q05655 whole entry, looked up): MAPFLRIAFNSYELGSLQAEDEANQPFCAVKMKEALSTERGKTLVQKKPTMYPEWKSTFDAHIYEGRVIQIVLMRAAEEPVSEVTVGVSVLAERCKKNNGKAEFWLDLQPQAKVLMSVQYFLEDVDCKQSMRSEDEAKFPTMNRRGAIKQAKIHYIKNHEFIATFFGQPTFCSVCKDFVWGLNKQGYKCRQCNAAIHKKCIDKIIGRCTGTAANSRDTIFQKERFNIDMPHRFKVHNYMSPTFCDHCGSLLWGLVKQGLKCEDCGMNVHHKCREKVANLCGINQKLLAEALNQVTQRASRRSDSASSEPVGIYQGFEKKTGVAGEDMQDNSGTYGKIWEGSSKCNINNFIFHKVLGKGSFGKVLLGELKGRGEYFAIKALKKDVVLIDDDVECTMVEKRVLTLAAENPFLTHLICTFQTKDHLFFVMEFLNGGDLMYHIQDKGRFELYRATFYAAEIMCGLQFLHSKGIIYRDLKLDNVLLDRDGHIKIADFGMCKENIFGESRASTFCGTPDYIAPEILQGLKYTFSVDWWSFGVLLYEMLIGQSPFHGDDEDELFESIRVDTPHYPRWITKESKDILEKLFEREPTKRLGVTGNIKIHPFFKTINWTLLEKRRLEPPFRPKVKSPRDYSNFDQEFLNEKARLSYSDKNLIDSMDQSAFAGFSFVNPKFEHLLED

MAPKAPK2 (human) = MAPKAPK2 (human) (UniProt P49137)
Sequence of MAPKAPK2 (human) (P49137 whole entry, looked up): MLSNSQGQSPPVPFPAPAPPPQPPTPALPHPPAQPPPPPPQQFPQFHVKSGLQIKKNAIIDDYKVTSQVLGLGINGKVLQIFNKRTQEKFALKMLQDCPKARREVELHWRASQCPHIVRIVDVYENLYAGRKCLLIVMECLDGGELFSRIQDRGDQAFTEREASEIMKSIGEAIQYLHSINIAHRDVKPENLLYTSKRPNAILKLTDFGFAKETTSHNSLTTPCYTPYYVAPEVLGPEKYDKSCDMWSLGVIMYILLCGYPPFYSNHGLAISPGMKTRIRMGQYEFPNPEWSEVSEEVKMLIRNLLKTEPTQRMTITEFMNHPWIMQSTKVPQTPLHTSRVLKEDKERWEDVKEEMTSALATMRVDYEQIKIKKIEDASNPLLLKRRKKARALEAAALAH

PTK6 (human) = PTK6 (human) (UniProt Q13882)
Sequence of PTK6 (human) (Q13882 whole entry, looked up): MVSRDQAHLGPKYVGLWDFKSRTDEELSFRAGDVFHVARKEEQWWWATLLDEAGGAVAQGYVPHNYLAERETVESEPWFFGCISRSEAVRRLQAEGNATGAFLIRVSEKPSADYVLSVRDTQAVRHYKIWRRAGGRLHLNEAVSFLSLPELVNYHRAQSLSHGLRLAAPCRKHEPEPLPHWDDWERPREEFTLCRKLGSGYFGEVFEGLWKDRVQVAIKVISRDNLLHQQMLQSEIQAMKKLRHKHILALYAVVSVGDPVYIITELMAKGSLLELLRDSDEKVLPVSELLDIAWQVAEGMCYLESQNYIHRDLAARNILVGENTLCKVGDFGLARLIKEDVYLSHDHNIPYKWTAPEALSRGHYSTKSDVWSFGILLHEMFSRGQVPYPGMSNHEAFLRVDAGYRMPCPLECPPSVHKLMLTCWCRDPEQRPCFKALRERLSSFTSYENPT

CIT (human) = CIT (human) (UniProt O14578)
TYRO3 (human) = TYRO3 (human) (UniProt Q06418)
PRKACA (human) = PRKACA (human) (UniProt P17612)
CHUK (human) = CHUK (human) (UniProt O15111)
RET (human) = RET (human) (UniProt P07949)
TRPM6 (human) = TRPM6 (human) (UniProt Q9BX84)
[3] = system: FLT3 (human), P36888 [ITD]
RIOK1 (human) = RIOK1 (human) (UniProt Q9BRS2)
EPHA8 (human) = EPHA8 (human) (UniProt P29322)
Sequence of EPHA8 (human) (P29322 whole entry, looked up): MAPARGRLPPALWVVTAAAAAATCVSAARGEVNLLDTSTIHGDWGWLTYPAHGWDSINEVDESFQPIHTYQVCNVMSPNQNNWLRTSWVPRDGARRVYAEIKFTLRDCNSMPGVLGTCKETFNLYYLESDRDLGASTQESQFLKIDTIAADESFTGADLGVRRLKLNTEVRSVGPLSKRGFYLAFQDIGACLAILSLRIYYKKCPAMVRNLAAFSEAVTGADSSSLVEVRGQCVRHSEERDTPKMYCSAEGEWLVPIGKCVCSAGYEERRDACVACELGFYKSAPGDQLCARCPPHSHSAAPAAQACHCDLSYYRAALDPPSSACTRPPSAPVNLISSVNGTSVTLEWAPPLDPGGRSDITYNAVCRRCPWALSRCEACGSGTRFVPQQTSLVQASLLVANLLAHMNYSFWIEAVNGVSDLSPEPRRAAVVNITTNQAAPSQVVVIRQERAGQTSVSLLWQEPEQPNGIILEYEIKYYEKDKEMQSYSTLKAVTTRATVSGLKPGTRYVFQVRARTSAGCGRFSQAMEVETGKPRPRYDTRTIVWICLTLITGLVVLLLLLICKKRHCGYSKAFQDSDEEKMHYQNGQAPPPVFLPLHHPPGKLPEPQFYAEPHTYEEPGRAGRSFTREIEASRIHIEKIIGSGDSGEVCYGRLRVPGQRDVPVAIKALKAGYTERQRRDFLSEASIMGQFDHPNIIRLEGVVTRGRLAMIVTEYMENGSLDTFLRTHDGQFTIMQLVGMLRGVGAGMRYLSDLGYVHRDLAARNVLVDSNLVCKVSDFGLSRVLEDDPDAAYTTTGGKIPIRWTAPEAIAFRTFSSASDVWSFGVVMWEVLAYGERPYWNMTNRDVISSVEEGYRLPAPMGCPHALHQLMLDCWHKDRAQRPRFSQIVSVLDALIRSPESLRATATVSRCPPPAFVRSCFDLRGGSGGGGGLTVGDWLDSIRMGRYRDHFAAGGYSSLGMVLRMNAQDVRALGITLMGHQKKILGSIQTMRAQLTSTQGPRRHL

CAMK1G (human) = CAMK1G (human) (UniProt Q96NX5)
CDK7 (human) = CDK7 (human) (UniProt P50613)
Sequence of CDK7 (human) (P50613 whole entry, looked up): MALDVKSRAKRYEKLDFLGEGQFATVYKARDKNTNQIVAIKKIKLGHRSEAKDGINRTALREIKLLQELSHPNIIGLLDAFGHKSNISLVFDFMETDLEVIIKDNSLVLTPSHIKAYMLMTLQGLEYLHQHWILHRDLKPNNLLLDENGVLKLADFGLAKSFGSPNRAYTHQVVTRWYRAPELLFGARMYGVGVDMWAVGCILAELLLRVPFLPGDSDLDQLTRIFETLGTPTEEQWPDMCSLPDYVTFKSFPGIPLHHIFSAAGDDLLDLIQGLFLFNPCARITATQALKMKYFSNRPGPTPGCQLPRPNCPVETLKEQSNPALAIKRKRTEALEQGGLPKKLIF

MAPK12 (human) = MAPK12 (human) (UniProt P53778)
PDGFRA (human) = PDGFRA (human) (UniProt P16234)
PIK3CB (human) = PIK3CB (human) (UniProt P42338)
SNRK (human) = SNRK (human) (UniProt Q9NRH2)
Sequence of SNRK (human) (Q9NRH2 whole entry, looked up): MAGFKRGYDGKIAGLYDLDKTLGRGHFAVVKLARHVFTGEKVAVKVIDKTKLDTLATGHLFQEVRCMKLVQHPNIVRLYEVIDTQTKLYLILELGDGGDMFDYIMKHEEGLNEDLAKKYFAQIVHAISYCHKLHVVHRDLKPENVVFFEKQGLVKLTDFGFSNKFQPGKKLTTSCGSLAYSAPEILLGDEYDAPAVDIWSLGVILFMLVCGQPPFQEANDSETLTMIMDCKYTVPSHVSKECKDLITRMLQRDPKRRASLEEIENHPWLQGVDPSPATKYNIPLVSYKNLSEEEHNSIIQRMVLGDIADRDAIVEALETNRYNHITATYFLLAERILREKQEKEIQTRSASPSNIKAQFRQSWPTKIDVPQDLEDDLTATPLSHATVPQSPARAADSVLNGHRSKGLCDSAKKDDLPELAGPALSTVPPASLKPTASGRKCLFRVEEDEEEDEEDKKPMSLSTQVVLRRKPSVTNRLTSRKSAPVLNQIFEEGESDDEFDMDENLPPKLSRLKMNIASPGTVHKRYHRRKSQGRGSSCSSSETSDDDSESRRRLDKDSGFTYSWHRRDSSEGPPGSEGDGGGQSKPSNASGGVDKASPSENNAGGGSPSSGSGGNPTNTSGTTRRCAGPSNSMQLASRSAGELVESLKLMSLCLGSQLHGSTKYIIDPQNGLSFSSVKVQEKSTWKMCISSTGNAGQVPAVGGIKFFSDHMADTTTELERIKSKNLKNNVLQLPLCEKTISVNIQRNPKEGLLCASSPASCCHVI

[4] = molecular target: JAK1 JH2 pseudokinase (human) (UniProt P23458)
ERBB4 (human) = ERBB4 (human) (UniProt Q15303)
IKBKB (human) = IKBKB (human) (UniProt O14920)
Sequence of IKBKB (human) (O14920 whole entry, looked up): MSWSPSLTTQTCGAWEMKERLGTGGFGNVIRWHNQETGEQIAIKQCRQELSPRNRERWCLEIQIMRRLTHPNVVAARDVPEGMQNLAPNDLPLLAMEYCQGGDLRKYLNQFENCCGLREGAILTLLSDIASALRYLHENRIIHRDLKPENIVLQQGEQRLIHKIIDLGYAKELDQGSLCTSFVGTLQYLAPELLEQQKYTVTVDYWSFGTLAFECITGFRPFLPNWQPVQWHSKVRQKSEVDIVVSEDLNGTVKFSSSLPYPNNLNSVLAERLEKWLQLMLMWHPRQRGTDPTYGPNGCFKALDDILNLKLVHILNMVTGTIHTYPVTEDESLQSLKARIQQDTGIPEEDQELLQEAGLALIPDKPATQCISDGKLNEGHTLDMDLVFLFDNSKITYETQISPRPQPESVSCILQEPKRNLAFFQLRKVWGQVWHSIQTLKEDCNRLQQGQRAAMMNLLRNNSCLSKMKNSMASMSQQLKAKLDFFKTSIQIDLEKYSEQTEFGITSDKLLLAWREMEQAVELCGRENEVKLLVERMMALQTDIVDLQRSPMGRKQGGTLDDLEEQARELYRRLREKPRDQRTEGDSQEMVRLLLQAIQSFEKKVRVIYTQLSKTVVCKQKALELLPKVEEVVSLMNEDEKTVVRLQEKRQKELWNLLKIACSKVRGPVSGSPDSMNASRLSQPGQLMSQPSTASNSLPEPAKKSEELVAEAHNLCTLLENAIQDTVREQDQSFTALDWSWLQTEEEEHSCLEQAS

[5] = system: LRRK2 (human), Q5S007 [G2019S]
FGFR1 (human) = FGFR1 (human) (UniProt P11362)
PRKCI (human) = PRKCI (human) (UniProt P41743)

CNC(=O)c1cc(Oc2ccc(NC(=O)Nc3ccc(Cl)c(C(F)(F)F)c3)cc2)ccn1
per cent of control (PRKD3 (human)): 70% | per cent of control (CDK19 (human)): 0.7% | per cent of control [1]: 0.45% | per cent of control (MAPK7 (human)): 81% | per cent of control [2]: 0% | per cent of control (PLK4 (human)): 46% | per cent of control (PDGFRB (human)): 0% | per cent of control (DMPK (human)): 90% | per cent of control (CDK14 (human)): 3.1% | per cent of control (PIP4K2C (human)): 34% | per cent of control (TNK2 (human)): 99% | per cent of control (RPS6KB1 (human)): 46% | per cent of control (CHEK2 (human)): 63% | per cent of control (PRKCE (human)): 100% | per cent of control (CAMK1D (human)): 88% | per cent of control (CDKL5 (human)): 67% | per cent of control (HIPK4 (human)): 4.5% | per cent of control (PRKCD (human)): 100% | per cent of control (MAPKAPK2 (human)): 91% | per cent of control (PTK6 (human)): 93% | per cent of control (CIT (human)): 20% | per cent of control (TYRO3 (human)): 100% | per cent of control (PRKACA (human)): 100% | per cent of control (CHUK (human)): 93% | per cent of control (RET (human)): 0% | per cent of control (TRPM6 (human)): 100% | per cent of control [3]: 0.5% | per cent of control (RIOK1 (human)): 100% | per cent of control (EPHA8 (human)): 0.9% | per cent of control (CAMK1G (human)): 87% | per cent of control (CDK7 (human)): 3.2% | per cent of control (MAPK12 (human)): 42% | per cent of control (PDGFRA (human)): 0% | per cent of control (PIK3CB (human)): 100% | per cent of control (SNRK (human)): 100% | per cent of control [4]: 97% | per cent of control (ERBB4 (human)): 92% | per cent of control (IKBKB (human)): 100% | per cent of control [5]: 62% | per cent of control (FGFR1 (human)): 3.4% | per cent of control (PRKCI (human)): 100%

CNC(=O)c1cc(Oc2ccc(NC(=O)Nc3ccc(Cl)c(C(F)(F)F)c3)cc2)cc[n+]1[O-]
per cent of control (PRKD3 (human)): 83% | per cent of control (CDK19 (human)): 0.35% | per cent of control [1]: 0.45% | per cent of control (MAPK7 (human)): 65% | per cent of control [2]: 0% | per cent of control (PLK4 (human)): 5.2% | per cent of control (PDGFRB (human)): 0% | per cent of control (DMPK (human)): 91% | per cent of control (CDK14 (human)): 3.8% | per cent of control (PIP4K2C (human)): 16% | per cent of control (TNK2 (human)): 100% | per cent of control (RPS6KB1 (human)): 42% | per cent of control (CHEK2 (human)): 21% | per cent of control (PRKCE (human)): 100% | per cent of control (CAMK1D (human)): 75% | per cent of control (CDKL5 (human)): 27% | per cent of control (HIPK4 (human)): 2.3% | per cent of control (PRKCD (human)): 100% | per cent of control (MAPKAPK2 (human)): 100% | per cent of control (PTK6 (human)): 100% | per cent of control (CIT (human)): 27% | per cent of control (TYRO3 (human)): 100% | per cent of control (PRKACA (human)): 100% | per cent of control (CHUK (human)): 6.5% | per cent of control (RET (human)): 0% | per cent of control (TRPM6 (human)): 100% | per cent of control [3]: 0.4% | per cent of control (RIOK1 (human)): 100% | per cent of control (EPHA8 (human)): 0.3% | per cent of control (CAMK1G (human)): 76% | per cent of control (CDK7 (human)): 5% | per cent of control (MAPK12 (human)): 0.1% | per cent of control (PDGFRA (human)): 0% | per cent of control (PIK3CB (human)): 93% | per cent of control (SNRK (human)): 95% | per cent of control [4]: 96% | per cent of control (ERBB4 (human)): 100% | per cent of control (IKBKB (human)): 61% | per cent of control [5]: 64% | per cent of control (FGFR1 (human)): 9.7% | per cent of control (PRKCI (human)): 100%
